Measured values from US9834525B2, “Inhibitors of paxillin function and related compositions and methods” (UNIVERSITY OF TENNESSEE RESEARCH FOUNDATION, priority 2015, dated 2017).

Tested on: UM tumor cells
Assay: Phalloidin (F-actin) analysis by flow cytometry in UM cells
Format: cell-based, human
Conditions: treatment for 24 hrs
Experimental: Retinal endothelial cells (REC) and UM-OMM 2.5 cells were harvested, washed and counted. 1.0×10^6 cells were fixed for 1 hr at 4° C. and permeabilized with the Intracellular Fixation and Permeabilization Buffer Kit (eBiosciences, San Diego, Calif.). Cells were washed followed by Alexa-Fluor 647 Phalloidin (MOLECULAR PROBES, Life Technologies, Carlsbad, Calif.) labeling using 1 U/μL. Cells were washed and analyzed using BD LSR II followed by analysis using FlowJo xV10.0.6 software.
Next, it was investigated if reduced numbers were a consequence of a reduction in UM cells proliferation. Cell cultures in the presence or absence of compound (II-4) were analyzed by follow cytometry for cytoskeletal fragmentation and proliferation. Uncontrolled cytoskeletal remodeling and cell proliferation are considered hallmarks of tumor growth and metastasis. […]
FIG. 15: The paxillin inhibitor Compound (II-4) selectively affects cellular proliferation of primary UM cells that become metastatic. […] Unlabeled cells were used to control fluorescence. […] B. Quantitation of experiment +/−SD including primary UM that becomes metastatic (Mel 270), metastatic (OMM 2.1) and primary (92.1) UM cells. *P=0.0007 and **P=0.0005. […] Quantitation of VLA-4 protein levels +/−SD from n=3. […]

COc1cc(C2OC(=O)Nc3c2ccc2ccccc32)cc(OC)c1OC (stereo not shown) [compound II-4]
actin remodeling (intracellular phalloidin, F-actin): no difference in actin remodeling
